According to patent US7803837B2, “4-oxo-4,5-dihydro-furan-2-carboxylic acid derivatives and methods of treatment of metabolic-related disorders thereof” (Arena Pharmaceuticals, Inc., priority 2003, dated 2010):

System: free fatty acid production
Assay: Inhibition of free fatty-acid production, in vivo, in catheterized male rats (NEFA assay on serum)
Parameters: species or system Sprague-Daly Rats
Conditions: food deprived catheterized rats, IP administration at various concentrations, FIG. 2A/2B
Description: Inhibition of Free Fatty-Acid Production, In Vivo, in Catheterized Male Sprague-Daly Rats
Non-esterified free-fatty acid (NEFA) assays were done on serum derived from live, freely moving rats. Jugular vein catheters were surgically implanted into the jugular veins and the animals were allowed to recover at least 48 hr post surgery. Food was removed from the animals approximately 16 hours prior to the assay. A draw of ˜200 μl blood was pulled from the catheter and represents the baseline NEFA serum sample. Drug was administered intra-peritoneally (IP) at various concentrations to individual rats and then ˜200 μl blood draws were pulled from the catheter at the indicated time points for further NEFA analysis. NEFA assays were performed according to the manufacturer's specifications (Wako Chemicals, USA; NEFA C) and free fatty acid concentrations were determined via regression analysis of a known standard curve (range of known free fatty acids). Data was analyzed using Excel and PrismGraph.

CC1(C2=CCCCC2)OC(C(=O)O)=CC1=O (racemic) [Compound 1, 5-Cyclohex-1-enyl-5-methyl-4-oxo-4,5-dihydro-furan-2-carboxylic acid]
inhibition of plasma free fatty acid (NEFA): able to inhibit free fatty acid production to the same extent, at similar doses and within the same time-frame as compared to nicotinic acid

O=C(O)c1cccnc1 [nicotinic acid, pyridine-3-carboxylic acid]
inhibition of plasma free fatty acid (NEFA): inhibiting plasma free fatty acid concentrations
